Test results as given in patent US10882837B2, “Amide compounds and use thereof” (ALPHALA CO., LTD., priority 2017, dated 2021).

Assays:
glucagon receptor (GCGR) = target: T1, glucagon receptor (GCGR) (Homo sapiens, UniProt P47871); experiment: Glucagon cAMP inhibition assay (Cisbio cAMP Dynamic 2 HTRF); format: cell-based; settings: GCGR overexpressed CHO-K1 cells or human primary hepatocytes (not specified); glucagon at EC50
T1 construct: expressed in transfected cells; host or cells: CHO-K1
In short: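 GCGR-overexpressing CHO-K1 cells or human primary hepatocytes in HBSS with 0.1% BSA and 800 nM IBMX, pre-incubated 30 min with compound (1% DMSO final), then stimulated 30 min at room temperature with glucagon at its EC50. cAMP measured by HTRF after 60 min lysis; IC50 from non-linear regression.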

GCGR = GCGR (Homo sapiens, UniProt P47871); experiment: I125-glucagon binding assay (competition, GCGR membrane fractions); parameters: expressed in transfected cells; host or cells: CHO-K1; inhibition: dose or concentration left out as unconfirmed; settings: for IC50: competition with I125-glucagon 0.0625 nM, membrane fractions from GCGR overexpressed CHO-K1 cells; for inhibition at 30 µM: compound at 30 μM
GCGR, sequence (P47871 26-477, species assumed): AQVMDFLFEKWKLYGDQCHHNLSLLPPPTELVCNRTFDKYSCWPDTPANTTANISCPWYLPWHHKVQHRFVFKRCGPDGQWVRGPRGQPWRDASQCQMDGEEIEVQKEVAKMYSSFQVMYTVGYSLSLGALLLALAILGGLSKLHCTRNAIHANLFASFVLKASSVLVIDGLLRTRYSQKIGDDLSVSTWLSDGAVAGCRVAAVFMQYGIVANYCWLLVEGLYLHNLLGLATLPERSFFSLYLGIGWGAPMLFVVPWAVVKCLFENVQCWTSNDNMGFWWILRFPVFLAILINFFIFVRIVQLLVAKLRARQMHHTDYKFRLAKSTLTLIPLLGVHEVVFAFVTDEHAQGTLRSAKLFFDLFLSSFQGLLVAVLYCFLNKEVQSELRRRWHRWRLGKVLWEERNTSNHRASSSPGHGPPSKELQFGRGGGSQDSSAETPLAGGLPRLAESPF
In short: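 Membranes from CHO-K1 cells overexpressing GCGR (7.5 µg/well) were preincubated 5 min with serially diluted compound in 50 mM Tris pH 7.4, 0.5% BSA. I125-glucagon was then added at 0.0625 nM final and incubated 30 min at 25 °C. After filtration, bound radioactivity was counted and IC50 derived by non-linear regression.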

[1] = read-out: percentage of inhibition (number in parenthesis in IC50 binding column)

T1 sequence (P47871 26-477, species assumed): as above

| SMILES | IC50 (glucagon receptor (GCGR)) | IC50 (GCGR) | inhibition at 30 µM (GCGR; [1]) | inhibition (GCGR; [1]) |
| --- | --- | --- | --- | --- |
| CCC(C)[C@@H](Nc1ccc(C(=O)NCCC(=O)O)cc1)c1ccc(-c2nc3ccccc3o2)cc1 (stereo partly drawn) [Compound 4-22, 3-(4-(((1R)-1-(4-(benzo[d]oxazol-2-yl)phenyl)-2-methylbutyl)amino)benzamido)propanoic acid] | 0.899 µM | 0.06 µM | – | – |
| CCC(C)C(Nc1ccc(C(=O)NCCC(=O)O)cc1)c1ccc(-c2nnc(-c3ccc(F)cc3)o2)cc1 (stereo not shown) [Compound 1-30, 3-(4-((1-(4-(5-(4-fluorophenyl)-1,3,4-oxadiazol-2-yl)phenyl)-2-methylbutyl)amino)benzamido)propanoic acid] | 3.41 µM | 0.347 µM | – | – |
| O=C(O)CCNC(=O)c1ccc(NC(c2ccc(-c3noc(-c4ccccc4)n3)cc2)C2CCCCC2)cc1 (stereo not shown) [Compound 2-17, 3-(4-((cyclohexyl(4-(5-phenyl-1,2,4-oxadiazol-3-yl)phenyl)methyl)amino)benzamido)propanoic acid] | 0.511 µM | 0.054 µM | – | – |
| CCOC(=O)CCNC(=O)c1ccc(NC(c2ccc(-c3nnc(-c4ccc(F)cc4)o3)cc2)C(C)CC)cc1 (stereo not shown) [Compound 1-29, ethyl 3-(4-((1-(4-(5-(4-fluorophenyl)-1,3,4-oxadiazol-2-yl)phenyl)-2-methylbutyl)amino)benzamido)propanoate] | 0.114 µM | 4.72 µM | – | – |
| CCCC[C@@H](Nc1ccc(C(=O)NCCC(=O)OCC)cc1)c1ccc(-c2noc(-c3ccccc3)n2)cc1 [Compound 2-35, ethyl (R)-3-(4-((1-(4-(5-phenyl-1,2,4-oxadiazol-3-yl)phenyl)pentyl)amino)benzamido)propanoate] | 0.852 µM | 0.04 µM | – | – |
| CCCC[C@@H](Nc1ccc(C(=O)NCCC(=O)OCC)cc1)c1ccc(-c2nnc(C(F)(F)F)o2)cc1 [Compound 1-52, ethyl (R)-3-(4-((1-(4-(5-(trifluoromethyl)-1,3,4-oxadiazol-2-yl)phenyl)pentyl)amino)benzamido)propanoate] | 0.439 µM | > 30 µM | – | – |
| CCCCC(Nc1ccc(C(=O)NCCC(=O)O)cc1)c1ccc(-c2nc3ccccc3o2)cc1 (stereo not shown) [Compound 4-4, 3-(4-((1-(4-(benzo[d]oxazol-2-yl)phenyl)pentyl)amino)benzamido)propanoic acid] | 1.08 µM | 0.101 µM | – | – |
| CCCC(Nc1ccc(C(=O)NCCC(=O)OCC)cc1)c1ccc(-c2nnc(-c3ccccc3)o2)cc1 (stereo not shown) [Compound 1-6, Ethyl 3-(4-((1-(4-(5-phenyl-1,3,4-oxadiazol-2-yl)phenyl)butyl)amino)benzamido)propanoate] | 0.031 µM | 2.61 µM | – | – |
| CCC(C)[C@H](Nc1ccc(C(=O)NCCC(=O)O)cc1)c1ccc(-c2nnc(C(F)(F)F)o2)cc1 (stereo partly drawn) [Compound 1-36, 3-(4-(((1S)-2-methyl-1-(4-(5-(trifluoromethyl)-1,3,4-oxadiazol-2-yl)phenyl)butyl)amino)benzamido)propanoic acid] | 2.04 µM | 0.359 µM | – | – |
| CCOC(=O)CCNC(=O)c1ccc(N[C@H](CC(C)C)c2ccc(-c3nnc(-c4ccccc4)o3)cc2)cc1 [Compound 1-60, ethyl (R)-3-(4-((3-methyl-1-(4-(5-phenyl-1,3,4-oxadiazol-2-yl)phenyl)butyl)amino)benzamido)propanoate] | 0.114 µM | > 30 µM | – | – |
| CCCCC(Nc1ccc(-c2nnc(-c3ccccc3)o2)cc1)c1ccc(C(=O)NCCC(=O)OCC)cc1 (stereo not shown) [Compound 3-3, ethyl 3-(4-(1-((4-(5-phenyl-1,3,4-oxadiazol-2-yl)phenyl)amino)pentyl)benzamido)propanoate] | 0.933 µM | 1.32 µM | – | – |
| CCCC[C@H](Nc1ccc(C(=O)NCCC(=O)OCC)cc1)c1ccc(-c2noc(-c3ccccc3)n2)cc1 [Compound 2-33, ethyl (S)-3-(4-((1-(4-(5-phenyl-1,2,4-oxadiazol-3-yl)phenyl)pentyl)amino)benzamido)propanoate] | 0.283 µM | 1.04 µM | – | – |
| CCC(C)[C@@H](Nc1ccc(C(=O)NCCC(=O)O)cc1)c1ccc(-c2nnc(C(F)(F)F)o2)cc1 (stereo partly drawn) [Compound 1-37, 3-(4-(((1R)-2-methyl-1-(4-(S-(trifluoromethyl)-1,3,4-oxadiazol-2-yl)phenyl)butyl)amino)benzamido)propanoic acid] | 3.26 µM | 1.64 µM | – | – |
| CC(C)C(Oc1ccc(-c2nc3ccccc3o2)cc1)c1ccc(C(=O)NCCC(=O)O)cc1 (stereo not shown) [Compound 7-2, 3-(4-(1-(4-(Benzo[d]oxazol-2-yl)phenoxy)-2-methylpropyl)benzamido)propanoic acid] | 0.292 µM | 0.177 µM | – | – |
| CCCCC(Nc1ccc(C(=O)NCCC(=O)OC)cc1)c1ccc(-c2nnc(-c3ccccn3)o2)cc1 (stereo not shown) [Compound 1-38, methyl 3-(4-((1-(4-(5-(pyridin-2-yl)-1,3,4-oxadiazol-2-yl)phenyl)pentyl)amino)benzamido)propanoate] | 0.08 µM | 1.58 µM | – | – |
| CCCC[C@H](Nc1ccc(C(=O)NCCC(=O)O)cc1)c1ccc(-c2noc(-c3ccccn3)n2)cc1 [Compound 2-38, (S)-3-(4-((1-(4-(5-(pyridin-2-yl)-1,2,4-oxadiazol-3-yl)phenyl)pentyl)amino)benzamido)propanoic acid] | 0.686 µM | 0.226 µM | – | – |
| CC(C)[C@H](Nc1ccc(-c2nnc(-c3ccccc3)o2)cc1)c1ccc(C(=O)NCCC(=O)O)cc1 [Compound 3-14, (S)-3-(4-(2-methyl-1-(4-(5-phenyl-1,3,4-oxadiazol-2-yl)phenylamino)propyl)benzamido)propanoic acid] | 1.78 µM | 0.957 µM | – | – |
| CCCC[C@H](Nc1ccc(C(=O)NCCC(=O)OCC)cc1)c1ccc(-c2nc3ccccc3o2)cc1 [Compound 4-15, ethyl (S)-3-(4-((1-(4-(benzo[d]oxazol-2-yl)phenyl)pentyl)amino)benzamido)propanoate] | 0.043 µM | 0.35 µM | – | – |
| CC(C)[C@@H](Nc1ccc(C(=O)NCCC(=O)O)cc1)c1ccc(-c2nnc(C(F)(F)F)o2)cc1 [Compound 1-58, (R)-3-(4-((2-methyl-1-(4-(5-(trifluoromethyl)-1,3,4-oxadiazol-2-yl)phenyl)propyl)amino)benzamido)propanoic acid] | > 30 µM | 0.875 µM | – | – |
| CCOC(=O)CCNC(=O)c1ccc(N[C@H](c2ccc(-c3nc(-c4ccccc4)no3)cc2)C(C)C)cc1 [Compound 5-3, ethyl (S)-3-(4-((2-methyl-1-(4-(3-phenyl-1,2,4-oxadiazol-5-yl)phenyl)propyl)amino)benzamido)propanoate] | 0.0714 µM | 1.74 µM | – | – |
| CCOC(=O)CCNC(=O)c1ccc(N[C@H](c2ccc(-c3nnc(-c4ccccc4)o3)cc2)C(C)C)cc1 [Compound 1-39, (S)-ethyl 3-(4-(2-methyl-1-(4-(5-phenyl-1,3,4-oxadiazol-2-yl)phenyl)propylamino)benzamido)propanoate] | 0.0403 µM | 2.85 µM | – | – |
| CC(C)[C@H](Nc1ccc(C(=O)NCCC(=O)O)cc1)c1ccc(-c2nc3ccccc3s2)cc1 [Compound 4-26, (S)-3-(4-((1-(4-(benzo[d]thiazol-2-yl)phenyl)-2-methylpropyl)amino)benzamido)propanoic acid] | 1.02 µM | 0.0423 µM | – | – |
| CCOC(=O)CCNC(=O)c1ccc(NC(c2ccc(-c3nc4ccccc4o3)cc2)C(C)C)cc1 (stereo not shown) [Compound 4-1, ethyl 3-(4-((1-(4-(benzo[d]oxazol-2-yl)phenyl)-2-methylpropyl)amino)benzamido)propanoate] | 0.0957 µM | 0.968 µM | – | – |
| CC(C)C(Nc1ccc(C(=O)NCCC(=O)O)cc1)c1ccc(-c2noc(-c3ccccc3)n2)cc1 (stereo not shown) [Compound 2-26, 3-(4-((2-methyl-1-(4-(5-phenyl-1,2,4-oxadiazol-3-yl)phenyl)propyl)amino)benzamido)propanoic acid] | 0.57 µM | 0.04 µM | – | – |
| CCOC(=O)CCNC(=O)c1ccc(NC(c2ccc(-c3nnc(-c4ccccc4)o3)cc2)C(C)C)cc1 (stereo not shown) [Compound 1-3, Ethyl 3-(4-((2-methyl-1-(4-(5-phenyl-1,3,4-oxadiazol-2-yl)phenyl)propyl)amino)benzamido)propanoate] | 0.055 µM | 1.87 µM | 43% | – |
| CCCCC(Nc1ccc(C(=O)NCCC(=O)O)cc1)c1ccc(-c2nnc(C(C)(C)C)o2)cc1 (stereo not shown) [Compound 1-20, 3-(4-((1-(4-(5-(tert-butyl)-1,3,4-oxadiazol-2-yl)phenyl)pentyl)amino)benzamido)propanoic acid] | 15.2 µM | 0.562 µM | – | – |
| CCOC(=O)CCNC(=O)c1ccc(N[C@@H](c2ccc(-c3nnc(-c4ccccc4)o3)cc2)C(C)CC)cc1 (stereo partly drawn) [Compound 1-48, ethyl 3-(4-(((1R)-2-methyl-1-(4-(5-phenyl-1,3,4-oxadiazol-2-yl)phenyl)butyl)amino)benzamido)propanoate] | 0.164 µM | > 30 µM | – | – |
| CCCC[C@H](Nc1ccc(C(=O)NCCC(=O)OCC)cc1)c1ccc(-c2nc(-c3ccccc3)no2)cc1 [Compound 5-7, ethyl (S)-3-(4-((1-(4-(3-phenyl-1,2,4-oxadiazol-5-yl)phenyl)pentyl)amino)benzamido)propanoate] | 0.059 µM | 1.02 µM | 32% | – |
| CCOC(=O)CCNC(=O)c1ccc(NC(c2ccc(-c3noc(-c4cccs4)n3)cc2)C(C)C)cc1 (stereo not shown) [Compound 2-11, ethyl 3-(4-((2-methyl-1-(4-(5-(thiophen-2-yl)-1,2,4-oxadiazol-3-yl)phenyl)propyl)amino)benzamido)propanoate] | 0.18 µM | 3.06 µM | – | 38% |
